From paper PMC9354243, “The Role of Tryptophan in π Interactions in Proteins: An Experimental Approach” (Journal of the American Chemical Society, 2022)

What was measured:
[1] = biological target: T1, RibU W97Y labeled with 5FW (Lactococcus lactis subsp. cremoris, UniProt D8KIE9, W97Y); assay: Fluorescence titration of RibU with RBF, 5FW variant; format: binding
T1 construct: His10; made in house; host or cells: Lactococcus lactis Trp auxotroph NZ9000-trp with pMG36e-trpRS
Description: Fluorescence titration experiments of the different RibU constructs with RBF at 20 °C allowed estimation of the impact of W68 fluorination or 5-methylation on the binding affinity (Figure 3 and Table 5).
Figure 3 Titration of Trp analog labeled RibU W97Y proteins with RBF. The RBF fluorescence was measured at the indicated RBF concentrations in the absence (triangles) or presence (dots) of the W97Y RibU variant (see insets). The difference between these two signals were calculated to build the titration curve. This curve was used to compute the RBF Kd (see Experimental Section in the Supporting Information). […]
Binding assays – Fluorescence titrations of RibU with RBF.
The concentration of the riboflavin stock was established using a Jasco V-650 spectrophotometer with an ε435 of 12600 M-1.cm-1 The concentration of RibU-His was calculated using a Nanodrop (Thermo […]
Riboflavin was excited at 435 nm and emission was recorded between 450 nm and 700 nm using a FluoroLog 322 Spectrofluorometer (Jobin Yvon). […] Titration experiments were performed in a 1 mL quartz cuvette at 20 °C as described.13 In brief, purified and desalted RibU protein in gel filtration buffer was titrated with RBF and after each addition the emission spectrum was recorded twice, corrected for buffer emission and instrument response and integrated. […]

[2] = biological target: RibU; set-up: method as in PMID 17289680; conditions: cited from earlier work
[3] = system: RibU W68Y mutant; set-up: method as in PMID 17289680; conditions: W68Y mutant versus RibU; cited from earlier work
[4] = biological target: LmrR; set-up: method as in Takeuchi et al. (SI ref 3, main ref 21); conditions: 25 °C, SPR, ref Takeuchi et al. (SI ref 3, main ref 21); cited from earlier work

T1 sequence (D8KIE9 whole entry W97Y): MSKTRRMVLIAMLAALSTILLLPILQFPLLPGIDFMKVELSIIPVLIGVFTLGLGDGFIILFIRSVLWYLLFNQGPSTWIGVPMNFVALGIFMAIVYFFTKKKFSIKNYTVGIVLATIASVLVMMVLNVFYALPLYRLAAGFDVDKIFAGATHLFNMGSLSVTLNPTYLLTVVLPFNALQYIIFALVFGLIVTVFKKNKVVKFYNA

SMILES | Kd [1] [nM] | Kd [2] [nM] | Fold drop of RBF binding affinity [3] [fold] | Kd [4] [nM]
Cc1cc2nc3c(=O)[nH]c(=O)nc-3n(C[C@H](O)[C@H](O)[C@H](O)CO)c2cc1C [RBF, riboflavin] | 5.4 ± 1 | ~1 | ~100 | 
COc1cccc2c1C(=O)c1c(O)c3c(c(O)c1C2=O)C[C@@](O)(C(C)=O)C[C@@H]3O[C@H]1C[C@H](N)[C@H](O)[C@H](C)O1 [Dau, Daunomycin] |  |  |  | 350
